# Legend:
# [1] = Test of neutralization (weight of amine necessary for neutralizing 100 g of oleic acid); format: physicochemical; conditions: for Amount necessary for neutralizing 100 g of oleic acid: weight of amine per 100 g of oleic acid
# Description: The neutralizing capacity is evaluated by determining the weight of amine (in grams) necessary for neutralizing 100 g of oleic acid. In this example, the neutralizing capacities of the following products are compared: • Amine (1) alone: monoethanolamine (MEoA); • Amine (2) alone: n-heptyldiethanolamine ([…]); • Mixture of amine (1)+amine (2): 70% by weight of MEoA+30% by weight of […].
# [2] = format: physicochemical
# Description: In this example, the following two amines are considered: • Amine (1) alone: methyldiethanolamine (MDEoA); • Amine (2) alone: n-heptyldiethanolamine (C7DEoA).
# The appended FIG. 1 represents a ternary phase diagram between these 2 amines and water. The percentages are expressed by weight. The miscible mixtures are denoted by points (●), the immiscible mixtures are denoted by crosses (X).
# The C7DEoA/water binary mixture is not miscible in all proportions. There is immiscibility when the C7DEoA is found in an amount of greater than 50%. In the area of immiscibility (amount of C7DEoA greater than 50%), the MDEoA acts as a coupling agent (co-solvent) when it is present in a content of greater than 15%.
# [3] = system: Pseudomonas aeruginosa and Staphylococcus aureus; assay: Test of bacterial proliferation, bactericidal and/or bacteriostatic activity according to standard NF EN 1040; format: cell-based; set-up: key: +: low degree of reduction; ++++: high degree of reduction; conditions: surviving bacteria counted after 5 minutes contact at 20° C.
# Description: A test is carried out in order to evaluate the bactericidal and/or bacteriostatic activity of a sample of the composition of the invention, according to the standard NF EN 1040 (April 2006). A sample of a composition as it is (maximum concentration of the test: 80%) and/or diluted with water is added to a test suspension of bacteria (Pseudomonas aeruginosa and Staphylococcus aureus). The mixture is maintained at 20° C. for 5 minutes. An aliquote portion is removed at the end of this contact time; the bactericidal and/or bacteriostatic activity in this withdrawal is immediately neutralized or suppressed according to a validated method. The method used preferably is the dilution-neutralization method. Filtration over a membrane is used when it is not possible to find a suitable neutralizer. The surviving bacteria in each sample are counted, which makes it possible to calculate the degree of reduction, denoted by “+” (low degree of reduction) to “++++” (high degree of reduction) in table 2 below: […]
Compound,neutralizing capacity (in words) ([1]; oleic acid neutralization),Amount necessary for neutralizing 100 g of oleic acid [1] [g],amount of C7DEoA in C7DEoA/water binary mixture at which there is immiscibility [2],Degree of reduction [3]
n-heptyldiethanolamine [Composition C7DEoA],much lower,36,greater than 50%,++++
"NCCO [MEoA, monoethanolamine, reference compound]",,6.8,,+

# Source: patent US9232789B2, “Biostatic neutralizing composition for aqueous fluids” (ARKEMA FRANCE, priority 2010, dated 2016)
